{"source": "patent US20250206778A1", "about": "“PEPTIDE HAVING ANTIDIABETIC ACTIVITY, PEPTIDE COMPLEX, AND USE THEREOF” (CAREGEN CO., LTD., priority 2022, published 2025)", "format_in_all_cases": "cell-based", "key": {"[1]": {"system": "phosphorylated hormone-sensitive lipase (pHSL)", "assay": "Western blot of lipolytic enzyme proteins in 3T3-L1 adipocytes", "conditions": "2, 20 μg/ml, 1 h, FIGS. 13a, 13b", "description": "(§1) Whether the peptide of SEQ ID NO: 2 prepared in Preparation Example 1 promotes the expressions of lipolytic enzyme proteins in adipocytes was tested through protein expression analysis (western blot analysis).\n(§2) When 3T3-L1 preadipocytes reached 80% confluence, they were seeded in a 6-well plate at 5×10^5 cells/well and used for the experiment. Two days after reaching confluence, the culture medium was replaced with a differentiation induction medium [DMEM medium containing 10% FBS, 1 μg/ml insulin, 0.5 mM isobutyl methyl xanthine (IBMX) (Sigma, USA), and 1 μM dexamethasone (Sigma, USA)], and differentiation into adipocytes was induced. Two days after induction, preadipocytes were cultured for two days in a medium containing 10% FBS and 10 μg/mL insulin, and then the medium was replaced with a medium containing 10% FBS every two days until preadipocytes differentiated into adipocytes. When differentiation was completed, the medium was replaced with a serum-free medium, and cells were cultured for four hours to induce starvation. Cells were divided into an untreated group (negative control), the peptide of Preparation Example 1 (2, 20 μg/ml)-treatment group, and the TNFα (20 nM)-treatment group (positive control), and then treated with the substances at predetermined concentrations and cultured for one hour. Then, the cells in each treatment group were lysed by adding a lysis buffer. After lysis, proteins obtained by centrifugation at 4° C. and 12,000 rpm for 30 minutes were quantified using a BCA kit. Proteins were subjected to sodium dodecyl sulfate-polyacrylamide gel electrophoresis (SDS-PAGE) and electrotransferred to a membrane. The protein-attached membrane was blocked with 5% skim milk treatment, and then the primary antibody was reacted overnight at 4° C. The membrane was washed with PBS-T, the secondary antibody was reacted at room temperature for one hour, the membrane was washed again with PBS-T, and then visualization was carried out by using Gel Doc (Bio-Rad, Hercules, CA, USA) with a western detection reagent (Elpis Biotech, Daejeon, Korea). […]"}, "[2]": {"system": "perilipin (PLIN)", "assay": "Western blot of lipolytic enzyme proteins in 3T3-L1 adipocytes", "conditions": "2, 20 μg/ml, 1 h, FIGS. 13a, 13b", "description": "as §1, §2"}, "[3]": {"system": "adipose triglyceride lipase (ATGL)", "assay": "Western blot of lipolytic enzyme proteins in 3T3-L1 adipocytes", "conditions": "2, 20 μg/ml, 1 h, FIGS. 13a, 13b", "description": "as §1, §2"}, "[4]": {"system": "phospho-IRS (Tyr632)", "assay": "Western blot of insulin signals in 3T3-L1 adipocytes (peptide of SEQ ID NO: 2)", "conditions": "2, 20 μg/ml, FIGS. 15a, 15b", "description": "(§3) When 3T3-L1 preadipocytes reached 80% confluence, they were seeded in a 6-well plate at 5×10^5 cells/well and used for the experiment. Two days after reaching confluence, the culture medium was replaced with a differentiation induction medium [DMEM medium containing 10% FBS, 1 μg/ml insulin, 0.5 mM isobutyl methyl xanthine (IBMX) (Sigma, USA), and 1 μM dexamethasone (Sigma, USA)], and differentiation into adipocytes was induced. Two days after induction, preadipocytes were cultured for two days in a medium containing 10% FBS and 10 μg/mL insulin, and then the medium was replaced with a medium containing 10% FBS every two days until preadipocytes differentiated into adipocytes. When differentiation was completed, the medium was replaced with a serum-free medium, and cells were cultured for four hours to induce starvation. To the cells, each of rhTNF-α (2 nM), insulin (1 μg/ml), and the peptide of SEQ ID NO: 2 of Preparation Example 1 (2, 20 μg/ml) was added and the cells were cultured for one hour. The cells were cultured for 30 minutes, the cells of each treatment group were lysed by adding a lysis buffer, and then centrifuged at 4° C. and 12,000 rpm for 30 minutes. The obtained proteins were quantified using a BCA kit. Proteins were subjected to sodium dodecyl sulfate-polyacrylamide gel electrophoresis (SDS-PAGE) and electrotransferred to a membrane. The protein-attached membrane was blocked with 5% skim milk treatment, and then the primary antibody was reacted overnight at 4° C. The membrane was washed with PBS-T, the secondary antibody was reacted at room temperature for one hour, the membrane was washed again with PBS-T, and then visualization was carried out by using Gel Doc (Bio-Rad, Hercules, CA, USA) with a western detection reagent (Elpis Biotech, Daejeon, Korea). The antibodies used in the experiment are as follows: anti-phospho-IRS (Ser302) antibody (Cell signaling technology (CST), USA), anti-phospho-IRS (Tyr632) antibody (Cell signaling technology (CST), USA), anti-phospho-AKT antibody (Cell signaling technology (CST), USA), anti-phospho-AMPK antibody (Cell signaling technology (CST), USA), and anti-α-tubulin antibody (Santa Cruz Biotechnology, USA). […] In addition, it was confirmed that when the peptide of the present invention was treated, the phosphorylation of AMPK, an insulin sensitivity-increasing signaling protein, increased. Meanwhile, it was confirmed that phosphorylation of Ser302 of an insulin receptor substrate (IRS) decreased under an insulin resistance-inducing environment by the treatment of the present peptide, and thus insulin resistance was inhibited."}, "[5]": {"system": "phospho-AKT", "assay": "Western blot of insulin signals in 3T3-L1 adipocytes (peptide of SEQ ID NO: 2)", "conditions": "2, 20 μg/ml, FIGS. 15a, 15b", "description": "as §3"}, "[6]": {"system": "phospho-AMPK", "assay": "Western blot of insulin signals in 3T3-L1 adipocytes (peptide of SEQ ID NO: 2)", "conditions": "2, 20 μg/ml, FIGS. 15a, 15b", "description": "as §3"}, "[7]": {"system": "phospho-IRS (Ser302)", "assay": "Western blot of insulin signals in 3T3-L1 adipocytes (peptide of SEQ ID NO: 2)", "conditions": "rhTNF-α 2 nM, 2, 20 μg/ml, FIGS. 15a, 15b", "description": "as §3"}, "[8]": {"system": "3T3-L1 adipocytes", "assay": "Glycerol release assay (lipolysis) in 3T3-L1 adipocytes", "conditions": "2, 20 μg/ml, 48 h, FIG. 14", "description": "The release amount of glycerol, a lipolysis product, was analyzed to determine whether the peptide of SEQ ID NO: 2 prepared in Preparation Example 1 promotes lipolysis in adipocytes.\nWhen 3T3-L1 preadipocytes reached 80% confluence, they were seeded in a 6-well plate at 5×10^5 cells/well and used for the experiment. Two days after reaching confluence, the culture medium was replaced with a differentiation induction medium [DMEM medium containing 10% FBS, 1 μg/ml insulin, 0.5 mM isobutyl methyl xanthine (IBMX) (Sigma, USA), and 1 μM dexamethasone (Sigma, USA)], and differentiation into adipocytes was induced. Two days after induction, preadipocytes were cultured for two days in a medium containing 10% FBS and 10 μg/mL insulin, and then the medium was replaced with a medium containing 10% FBS every two days until preadipocytes differentiated into adipocytes. When differentiation was completed, the medium was replaced with a serum-free medium, and cells were cultured for four hours to induce starvation. Cells were divided into an untreated group (negative control), the peptide of SEQ ID NO: 2 of Preparation Example 1 (2, 20 μg/ml)-treatment group, and the TNF-α (20 nM)-treatment group (positive control), and then treated with the substances at predetermined concentrations and cultured for 48 hours. Then, the supernatants were obtained. […]"}}, "data": [{"sequence": "KGSATGWMA [peptide of SEQ ID NO: 2]", "values": [{"measurement": "expression of phosphorylated hormone-sensitive lipase (pHSL)", "setting": "[1]", "result": "increased"}, {"measurement": "expression of perilipin (PLIN)", "setting": "[2]", "result": "increased"}, {"measurement": "expression of adipose triglyceride lipase (ATGL)", "setting": "[3]", "result": "increased"}, {"measurement": "phosphorylation of Tyr632 of insulin receptor substrate (IRS)", "setting": "[4]", "result": "promoted"}, {"measurement": "activation of phosphorylation-AKT", "setting": "[5]", "result": "promoted"}, {"measurement": "phosphorylation of AMPK", "setting": "[6]", "result": "increased"}, {"measurement": "phosphorylation of Ser302 of insulin receptor substrate (IRS) under an insulin resistance-inducing environment", "setting": "[7]", "result": "decreased"}, {"measurement": "release amount of glycerol, a lipolysis product", "setting": "[8]", "result": "increased in a treated peptide concentration-dependent manner"}]}]}
